Reference: ChEMBL document CHEMBL1926566, “Molecular docking studies of a phlorotannin, dieckol isolated from Ecklonia cava with tyrosinase inhibitory activity” (Bioorg Med Chem, 2012)
Active and inactive are the calls of the source. The calls are words filed in the database; no cut-off is given here.

Key:
[1] = molecular target: T1, Tyrosinase (Mus musculus) (UniProt P11344); experiment: Inhibition of tyrosinase in alpha-MSH-stimulated mouse B16F10 cells assessed as inhibition of L-DOPA oxidation at 40 to 120 uM after 72 hrs by spectrophotometry; format: cell-based; details: B16-F10
T1 sequence (whole entry): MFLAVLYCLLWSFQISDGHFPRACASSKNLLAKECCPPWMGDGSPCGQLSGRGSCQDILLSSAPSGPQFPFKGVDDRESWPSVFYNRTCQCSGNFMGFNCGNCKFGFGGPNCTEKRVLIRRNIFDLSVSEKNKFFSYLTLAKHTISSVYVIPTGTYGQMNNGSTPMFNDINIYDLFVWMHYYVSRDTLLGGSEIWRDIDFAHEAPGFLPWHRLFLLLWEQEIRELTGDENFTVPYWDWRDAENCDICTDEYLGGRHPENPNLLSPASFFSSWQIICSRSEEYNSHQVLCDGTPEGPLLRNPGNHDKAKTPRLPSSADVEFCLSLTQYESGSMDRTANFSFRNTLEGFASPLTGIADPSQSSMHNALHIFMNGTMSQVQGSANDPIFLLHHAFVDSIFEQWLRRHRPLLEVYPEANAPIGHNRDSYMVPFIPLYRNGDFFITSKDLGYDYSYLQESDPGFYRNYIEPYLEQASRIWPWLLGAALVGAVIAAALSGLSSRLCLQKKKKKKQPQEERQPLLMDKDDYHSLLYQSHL

B16-F10 = experiment: Antimelanogenic activity in mouse B16F10 cells assessed as inhibition of alpha-MSH-induced melanin formation at 40 to 120 uM after 72 hrs by spectrophotometry; format: functional, cell-based
[2] = molecular target: T2, Tyrosinase (Agaricus bisporus) (UniProt O42713); experiment: Inhibition of mushroom tyrosinase hydroxylation activity using L-tyrosine as substrate at 120 uM after 30 mins by spectrophotometry
T2 sequence (whole entry): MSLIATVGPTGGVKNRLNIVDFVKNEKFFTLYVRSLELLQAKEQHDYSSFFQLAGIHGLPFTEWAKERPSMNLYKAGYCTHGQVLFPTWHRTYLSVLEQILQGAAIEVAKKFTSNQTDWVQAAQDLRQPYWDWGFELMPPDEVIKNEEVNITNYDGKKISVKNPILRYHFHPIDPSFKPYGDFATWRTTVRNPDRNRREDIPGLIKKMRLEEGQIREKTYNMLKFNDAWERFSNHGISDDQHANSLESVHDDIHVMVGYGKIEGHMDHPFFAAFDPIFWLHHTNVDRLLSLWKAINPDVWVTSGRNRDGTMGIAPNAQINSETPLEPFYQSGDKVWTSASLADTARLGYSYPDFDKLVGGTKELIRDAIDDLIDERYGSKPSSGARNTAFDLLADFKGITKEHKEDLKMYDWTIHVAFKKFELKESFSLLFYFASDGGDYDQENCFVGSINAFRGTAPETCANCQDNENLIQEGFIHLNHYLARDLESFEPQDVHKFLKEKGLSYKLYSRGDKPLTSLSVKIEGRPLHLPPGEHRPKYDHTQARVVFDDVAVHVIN

[3] = Cytotoxicity against mouse B16F10 cells assessed as cell viability at 40 to 120 uM after 72 hrs by MTT assay; format: cell-based, B16-F10
[4] = molecular target: T2, Tyrosinase (Agaricus bisporus); experiment: Non-competitive inhibition of mushroom tyrosinase assessed as inhibition of dopachrome formation by Lineweaver-Burk plot analysis
[5] = molecular target: T2, Tyrosinase (Agaricus bisporus); experiment: (§1) Inhibition of mushroom tyrosinase hydroxylation activity using L-tyrosine as substrate after 30 mins by spectrophotometry
Tyrosinase = molecular target: T3, Tyrosinase (Agaricus bisporus, UniProt O42713); experiment: as §1
T3 sequence (O42713 whole entry): T2 sequence (whole entry)

Structure (SMILES) | inhibition [1] | Activity (B16-F10) | inhibition [2] | viability at 72 h, up to 120 µM [3] | inhibition [4] | inhibition [5] | IC50 (Tyrosinase)
OC[C@H]1O[C@@H](Oc2ccc(O)cc2)[C@H](O)[C@@H](O)[C@@H]1O | Active | Active | – | – | – | – | –
Oc1cc(O)cc(Oc2c(O)cc(O)c3c2Oc2c(O)cc(Oc4c(O)cc(Oc5c(O)cc(O)c6c5Oc5c(O)cc(O)cc5O6)cc4O)cc2O3)c1 [DIECKOL] | Active | Active | 89.3% | > 95% | Active | Dose-dependent effect | 20 µM
